Experimental data taken from PubChem BioAssay (NCI).
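The compound was tested at five concentrations on cells cultured in 96-well plates, with a 48-hour exposure period. TGI denotes the concentration required for complete inhibition of growth.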

Experiments:
Assay in all cases: DTP human tumour cell line panel, 48 h
786-0 renal = system: 786-0 renal
A498 renal = system: A498 renal
A549 NSCLC = system: A549 NSCLC
ACHN renal = system: ACHN renal
BT-549 breast = system: BT-549 breast
CAKI-1 renal = system: CAKI-1 renal
CCRF-CEM leukemia = system: CCRF-CEM leukemia
COLO 205 colon = system: COLO 205 colon
DU-145 prostate = system: DU-145 prostate
EKVX NSCLC = system: EKVX NSCLC
HCT-116 colon = system: HCT-116 colon
HCT-15 colon = system: HCT-15 colon
HL-60(TB) leukemia = system: HL-60(TB) leukemia
HOP-62 NSCLC = system: HOP-62 NSCLC
HOP-92 NSCLC = system: HOP-92 NSCLC
HS 578T breast = system: HS 578T breast
HT29 colon = system: HT29 colon
IGROV1 ovarian = system: IGROV1 ovarian
K-562 leukemia = system: K-562 leukemia
KM12 colon = system: KM12 colon
LOX IMVI melanoma = system: LOX IMVI melanoma
M14 melanoma = system: M14 melanoma
MALME-3M melanoma = system: MALME-3M melanoma
MCF7 breast = system: MCF7 breast
MDA-MB-231 breast = system: MDA-MB-231 breast
MDA-MB-435 = system: MDA-MB-435
MDA-N = system: MDA-N
MOLT-4 leukemia = system: MOLT-4 leukemia
NCI-H226 lung = system: NCI-H226 lung
NCI-H23 lung = system: NCI-H23 lung
NCI-H460 lung = system: NCI-H460 lung
NCI-H522 lung = system: NCI-H522 lung
NCI/ADR-RES ovarian = system: NCI/ADR-RES ovarian
OVCAR-3 ovarian = system: OVCAR-3 ovarian
OVCAR-4 ovarian = system: OVCAR-4 ovarian
OVCAR-5 ovarian = system: OVCAR-5 ovarian
OVCAR-8 ovarian = system: OVCAR-8 ovarian
PC-3 prostate = system: PC-3 prostate
RPMI-8226 leukemia = system: RPMI-8226 leukemia
SF-268 CNS = system: SF-268 CNS
SF-295 CNS = system: SF-295 CNS
SF-539 CNS = system: SF-539 CNS
SK-MEL-28 melanoma = system: SK-MEL-28 melanoma
SK-MEL-5 melanoma = system: SK-MEL-5 melanoma
SN12C renal = system: SN12C renal
SNB-19 CNS = system: SNB-19 CNS
SNB-75 CNS = system: SNB-75 CNS
SR leukemia = system: SR leukemia
SW-620 colon = system: SW-620 colon
T-47D breast = system: T-47D breast
TK-10 renal = system: TK-10 renal
U251 CNS = system: U251 CNS
UACC-257 melanoma = system: UACC-257 melanoma
UACC-62 melanoma = system: UACC-62 melanoma
UO-31 renal = system: UO-31 renal
RXF 393 renal = system: RXF 393 renal
SK-MEL-2 melanoma = system: SK-MEL-2 melanoma
SK-OV-3 ovarian = system: SK-OV-3 ovarian

COC(=O)C(Cc1c[nH]c2ccccc12)NP(=O)(O)OCC1OC(n2ccc(N)nc2=O)C(O)C1O (stereo unspecified) showed a TGI (786-0 renal) greater than 100 µM, a TGI (A498 renal) greater than 100 µM and a TGI (A549 NSCLC) greater than 100 µM. For the same molecule, the TGI (ACHN renal) was greater than 100 µM, the TGI (BT-549 breast) was greater than 100 µM and the TGI (CAKI-1 renal) was greater than 100 µM. For the same molecule, the TGI (CCRF-CEM leukemia) was greater than 100 µM, the TGI (COLO 205 colon) was greater than 100 µM and the TGI (DU-145 prostate) was greater than 100 µM. It also gave a TGI (EKVX NSCLC) greater than 100 µM, a TGI (HCT-116 colon) greater than 100 µM and a TGI (HCT-15 colon) greater than 100 µM. It also gave a TGI (HL-60(TB) leukemia) greater than 100 µM, a TGI (HOP-62 NSCLC) greater than 100 µM and a TGI (HOP-92 NSCLC) greater than 100 µM. The TGI (HS 578T breast) was greater than 100 µM, the TGI (HT29 colon) was greater than 100 µM and the TGI (IGROV1 ovarian) was greater than 100 µM. The TGI (K-562 leukemia) was greater than 100 µM, the TGI (KM12 colon) was greater than 100 µM and the TGI (LOX IMVI melanoma) was greater than 100 µM. It also gave a TGI (M14 melanoma) greater than 100 µM, a TGI (MALME-3M melanoma) greater than 100 µM and a TGI (MCF7 breast) greater than 100 µM. The TGI (MDA-MB-231 breast) was greater than 100 µM, the TGI (MDA-MB-435) was greater than 100 µM and the TGI (MDA-N) was greater than 100 µM. It also gave a TGI (MOLT-4 leukemia) greater than 100 µM, a TGI (NCI-H226 lung) greater than 100 µM and a TGI (NCI-H23 lung) greater than 100 µM. For the same molecule, the TGI (NCI-H460 lung) was greater than 100 µM, the TGI (NCI-H522 lung) was greater than 100 µM and the TGI (NCI/ADR-RES ovarian) was greater than 100 µM. For the same molecule, the TGI (OVCAR-3 ovarian) was greater than 100 µM, the TGI (OVCAR-4 ovarian) was greater than 100 µM and the TGI (OVCAR-5 ovarian) was greater than 100 µM. The TGI (OVCAR-8 ovarian) was greater than 100 µM, the TGI (PC-3 prostate) was greater than 100 µM and the TGI (RPMI-8226 leukemia) was greater than 100 µM. It also gave a TGI (SF-268 CNS) greater than 100 µM, a TGI (SF-295 CNS) greater than 100 µM and a TGI (SF-539 CNS) greater than 100 µM. For the same molecule, the TGI (SK-MEL-28 melanoma) was greater than 100 µM, the TGI (SK-MEL-5 melanoma) was greater than 100 µM and the TGI (SN12C renal) was greater than 100 µM. For the same molecule, the TGI (SNB-19 CNS) was greater than 100 µM, the TGI (SNB-75 CNS) was greater than 100 µM and the TGI (SR leukemia) was greater than 100 µM. The TGI (SW-620 colon) was greater than 100 µM, the TGI (T-47D breast) was greater than 100 µM and the TGI (TK-10 renal) was greater than 100 µM. It also gave a TGI (U251 CNS) greater than 100 µM, a TGI (UACC-257 melanoma) greater than 100 µM and a TGI (UACC-62 melanoma) greater than 100 µM. It also gave a TGI (UO-31 renal) greater than 100 µM.

In the case of CC(C)(C)c1ccc(O)c(CN(Cc2c(O)ccc3ccccc23)C2CCCCC2)c1, the TGI (786-0 renal) is reported as 29.2 µM, the TGI (A498 renal) is reported as 37.6 µM and the TGI (A549 NSCLC) is reported as 48.9 µM. It also gave a TGI (ACHN renal) of 33.3 µM, a TGI (BT-549 breast) of 34.4 µM and a TGI (CAKI-1 renal) of 32.2 µM. It also gave a TGI (CCRF-CEM leukemia) greater than 100 µM, a TGI (COLO 205 colon) of 29.3 µM and a TGI (DU-145 prostate) of 60.9 µM. The TGI (EKVX NSCLC) was 30 µM, the TGI (HCT-116 colon) was 30.9 µM and the TGI (HCT-15 colon) was 31 µM. The TGI (HOP-62 NSCLC) was 36.9 µM, the TGI (HOP-92 NSCLC) was 30.7 µM and the TGI (HS 578T breast) was 84.3 µM. For the same molecule, the TGI (HT29 colon) was 31.6 µM, the TGI (IGROV1 ovarian) was 32.7 µM and the TGI (K-562 leukemia) was 52.1 µM. It also gave a TGI (KM12 colon) of 39.6 µM, a TGI (LOX IMVI melanoma) of 23.9 µM and a TGI (M14 melanoma) of 25.7 µM. The TGI (MALME-3M melanoma) was 31.9 µM, the TGI (MCF7 breast) was 31.9 µM and the TGI (MDA-MB-231 breast) was 30.6 µM. For the same molecule, the TGI (MDA-MB-435) was 52.6 µM, the TGI (MDA-N) was 29.3 µM and the TGI (MOLT-4 leukemia) was 54.9 µM. The TGI (NCI-H23 lung) was 35.3 µM, the TGI (NCI-H460 lung) was 30.4 µM and the TGI (NCI-H522 lung) was 28.9 µM. It also gave a TGI (NCI/ADR-RES ovarian) of 32.4 µM, a TGI (OVCAR-3 ovarian) of 34.3 µM and a TGI (OVCAR-4 ovarian) of 58.6 µM. It also gave a TGI (OVCAR-5 ovarian) of 32.4 µM, a TGI (OVCAR-8 ovarian) of 31.8 µM and a TGI (PC-3 prostate) of 28.5 µM. The TGI (RPMI-8226 leukemia) was greater than 100 µM, the TGI (RXF 393 renal) was 33.6 µM and the TGI (SF-268 CNS) was 30.9 µM. For the same molecule, the TGI (SF-295 CNS) was 38.1 µM, the TGI (SF-539 CNS) was 30.8 µM and the TGI (SK-MEL-2 melanoma) was 31.3 µM. The TGI (SK-MEL-28 melanoma) was 46 µM, the TGI (SK-MEL-5 melanoma) was 30.2 µM and the TGI (SK-OV-3 ovarian) was 58.6 µM. The TGI (SN12C renal) was 33.1 µM, the TGI (SNB-19 CNS) was 43.9 µM and the TGI (SNB-75 CNS) was 32.3 µM. It also gave a TGI (SR leukemia) of 52.2 µM, a TGI (SW-620 colon) of 85.2 µM and a TGI (T-47D breast) of 44.3 µM. For the same molecule, the TGI (TK-10 renal) was 29.2 µM, the TGI (U251 CNS) was 29.4 µM and the TGI (UACC-257 melanoma) was 29.3 µM. For the same molecule, the TGI (UACC-62 melanoma) was 30.1 µM and the TGI (UO-31 renal) was 29.2 µM.
